Source: patent US20240384350A1, “METHODS OF TREATING CANCER WITH KINASE INHIBITORS” (BOARD OF REGENTS, THE UNIVERSITY OF TEXAS SYSTEM, priority 2021, published 2024)

Experiments:
Assay in all cases: Ba/F3 drug screening, Cell Titer Glo, IC50 Mut/WT
Format in all cases: cell-based
EGFR S784F = target: T1, EGFR S784F (Homo sapiens, UniProt P00533, S784F); conditions: Classical-Like, 72 hours
T1 construct: expressed in transfected cells; host or cells: Ba/F3 cells, retroviral pBabe-Puro vector (vector made by GeneScript from EGFR WT)

EGFR Ex19del/T790M/G724S = target: T2, EGFR Ex19del/T790M/G724S (Homo sapiens, UniProt P00533, DEL746-750/G724S/T790M); conditions: T790M-like-3S, 72 hours
T2 construct: expressed in transfected cells; host or cells: Ba/F3

EGFR K757R = target: T3, EGFR K757R (Homo sapiens, UniProt P00533, K757R); conditions: PACC; K757R; Ba/F3; 72 hours
T3 construct: expressed in transfected cells; host or cells: Ba/F3

EGFR L858R T790M L792H = target: T4, EGFR L858R T790M L792H (Homo sapiens, UniProt P00533, L792H/L858R/T790M); conditions: T790M-like-3S, 72 hours
T4 construct: expressed in transfected cells; host or cells: Ba/F3

[1] = target: T5, EGFR L747_K754del insATSPE (Homo sapiens, UniProt P00533, DEL747-749/K754E); conditions: T790M-like-3S, 72 hours
T5 construct: expressed in transfected cells; host or cells: Ba/F3 cells, retroviral pBabe-Puro vector

EGFR L858R/C797S = target: T6, EGFR L858R/C797S (Homo sapiens, UniProt P00533, C797S/L858R); conditions: PACC; L858R/C797S; Ba/F3; 72 hours
T6 construct: expressed in transfected cells; host or cells: Ba/F3

EGFR L861Q = target: T7, EGFR L861Q (Homo sapiens, UniProt P00533, L861Q); conditions: Classical-Like, 72 hours
T7 construct: expressed in transfected cells; host or cells: Ba/F3 cells, retroviral pBabe-Puro vector

EGFR G719A/R776C = target: T8, EGFR G719A/R776C (Homo sapiens, UniProt P00533, G719A/R776C); conditions: PACC; G719A/R776C; Ba/F3; 72 hours
T8 construct: expressed in transfected cells; host or cells: Ba/F3

EGFR E709K L858R = target: T9, EGFR E709K L858R (Homo sapiens, UniProt P00533, E709K/L858R); conditions: Classical-Like, 72 hours
T9 construct: expressed in transfected cells; host or cells: Ba/F3 cells, retroviral pBabe-Puro vector

EGFR S768I/V769L = target: T10, EGFR S768I/V769L (Homo sapiens, UniProt P00533, S768I/V769L); conditions: PACC; S768I/V769L; Ba/F3; 72 hours
T10 construct: host or cells: Ba/F3

EGFR Ex19del/C797S = target: T11, EGFR Ex19del/C797S (Homo sapiens, UniProt P00533, C797S/DEL746-750); conditions: PACC; Ex19del/C797S; Ba/F3; 72 hours
T11 construct: expressed in transfected cells; host or cells: Ba/F3

EGFR L858R/L792H = target: T12, EGFR L858R/L792H (Homo sapiens, UniProt P00533, L792H/L858R); conditions: PACC; L858R/L792H; Ba/F3; 72 hours
T12 construct: expressed in transfected cells; host or cells: Ba/F3

EGFR L858R/T790M/L718Q = target: T13, EGFR L858R/T790M/L718Q (Homo sapiens, UniProt P00533, L718Q/L858R/T790M); conditions: T790M-like-3R, 72 hours
T13 construct: expressed in transfected cells; host or cells: Ba/F3

EGFR Ex19del L718Q = target: T14, EGFR Ex19del L718Q (Homo sapiens, UniProt P00533, DEL746-750/L718Q); conditions: PACC; Ex19del L718Q; Ba/F3; 72 hours
T14 construct: expressed in transfected cells; host or cells: Ba/F3

EGFR E709K G719S = target: T15, EGFR E709K G719S (Homo sapiens, UniProt P00533, E709K/G719S); conditions: PACC; E709K G719S; Ba/F3; 72 hours
T15 construct: expressed in transfected cells; host or cells: Ba/F3

EGFR L858R/L718V = target: T16, EGFR L858R/L718V (Homo sapiens, UniProt P00533, L718V/L858R); conditions: PACC; L858R/L718V; Ba/F3; 72 hours
T16 construct: host or cells: Ba/F3

EGFR L747S = target: T17, EGFR L747S (Homo sapiens, UniProt P00533, L747S); conditions: PACC; L747S; Ba/F3; 72 hours
T17 construct: expressed in transfected cells; host or cells: Ba/F3

EGFR G719S = target: T18, EGFR G719S (Homo sapiens, UniProt P00533, G719S); conditions: PACC; G719S; Ba/F3; 72 hours
T18 construct: expressed in transfected cells; host or cells: Ba/F3

EGFR L858R/V834L = target: T19, EGFR L858R/V834L (Homo sapiens, UniProt P00533, L858R/V834L); conditions: Classical-Like, 72 hours
T19 construct: expressed in transfected cells; host or cells: Ba/F3 cells, retroviral pBabe-Puro vector

EGFR L718V = target: T20, EGFR L718V (Homo sapiens, UniProt P00533, L718V); conditions: PACC; L718V; Ba/F3; 72 hours
T20 construct: expressed in transfected cells; host or cells: Ba/F3

EGFR S720P = target: T21, EGFR S720P (Homo sapiens, UniProt P00533, S720P); conditions: Classical-Like, 72 hours
T21 construct: expressed in transfected cells; host or cells: Ba/F3 cells, retroviral pBabe-Puro vector (vector made by GeneScript from EGFR WT)

EGFR N771dupN G724S = target: T22, EGFR N771dupN G724S (Homo sapiens, UniProt P00533, DUP771-771/G724S); conditions: Ex20, 72 hours
T22 construct: expressed in transfected cells; host or cells: Ba/F3 cells, retroviral pBabe-Puro vector (vector made by GeneScript from EGFR G724S, c.2313_2314insAAC)

EGFR S768I = target: T23, EGFR S768I (Homo sapiens, UniProt P00533, S768I); conditions: PACC; S768I; Ba/F3; 72 hours
T23 construct: expressed in transfected cells; host or cells: Ba/F3

With COc1cc2ncnc(Nc3ccc(F)c(Cl)c3)c2cc1NC(=O)/C=C/CN1CCCCC1 [Dacomitinib] the “ratio of IC50 for cells with mutant EGFR to IC50 for cells with wildtype EGFR (Mut/WT)” value (shortened to “ratio of IC50 for cells with mutant EGFR”) (EGFR S784F) was 0.08997, the “ratio of IC50 for cells with mutant EGFR” value (EGFR Ex19del/T790M/G724S) was 9.95 and the “ratio of IC50 for cells with mutant EGFR” value (EGFR K757R) was 0.04087. For the same compound, the “ratio of IC50 for cells with mutant EGFR” value (EGFR L858R T790M L792H) was 8.291, the “ratio of IC50 for cells with mutant EGFR” value [1] was 5.465 and the “ratio of IC50 for cells with mutant EGFR” value (EGFR L858R/C797S) was 0.04539. The “ratio of IC50 for cells with mutant EGFR” value (EGFR L861Q) was 0.002064, the “ratio of IC50 for cells with mutant EGFR” value (EGFR G719A/R776C) was 0.002518 and the “ratio of IC50 for cells with mutant EGFR” value (EGFR E709K L858R) was 0.007985. For the same compound, the “ratio of IC50 for cells with mutant EGFR” value (EGFR S768I/V769L) was 0.2085, the “ratio of IC50 for cells with mutant EGFR” value (EGFR Ex19del/C797S) was 0.01762 and the “ratio of IC50 for cells with mutant EGFR” value (EGFR L858R/L792H) was 0.002838. The “ratio of IC50 for cells with mutant EGFR” value (EGFR L858R/T790M/L718Q) was 45.78, the “ratio of IC50 for cells with mutant EGFR” value (EGFR Ex19del L718Q) was 0.03226 and the “ratio of IC50 for cells with mutant EGFR” value (EGFR E709K G719S) was 0.001358. For the same compound, the “ratio of IC50 for cells with mutant EGFR” value (EGFR L858R/L718V) was 0.001529, the “ratio of IC50 for cells with mutant EGFR” value (EGFR L747S) was 0.006377 and the “ratio of IC50 for cells with mutant EGFR” value (EGFR G719S) was 0.002178. The “ratio of IC50 for cells with mutant EGFR” value (EGFR L858R/V834L) was 0.009314, the “ratio of IC50 for cells with mutant EGFR” value (EGFR L718V) was 0.1103 and the “ratio of IC50 for cells with mutant EGFR” value (EGFR S720P) was 0.03879. For the same compound, the “ratio of IC50 for cells with mutant EGFR” value (EGFR N771dupN G724S) was 3.161 and the “ratio of IC50 for cells with mutant EGFR” value (EGFR S768I) was 17.66.
